Columns and labels:
A549 cells [1] = assay: Viability IC50, high-throughput automated analysis (Table 4); assay type: cell-based; conditions: Homo sapiens, 3 population doubling times
Description: (§1) FIG. 1A) is a line graph showing changes in the percentage of viable HFF-1, HeLa, A549 and HCT 116 cells after treatment with a range of C75 concentrations for 3 population doubling times (N=3). […] There were more rounded mitotic cells after C75 treatment in comparison to the control. FIG. 1C) is a line graph showing the percentage of HeLa and HFF1 cells in mitosis after treatment with various concentrations of C75 for 8 hours. The bars indicate standard deviation. FIG. 1D) is a series of images showing cells that were fixed and co-stained for tubulin (microtubules) and DAPI (DNA). Treatment of HeLa cells with 300 nM C75 caused the mitotic spindles to be disorganized, while they were not affected in HFF1 cells. […] The scale bar for the cells is 10 μm. […] FIG. 1F) is a cartoon schematic showing the key features of a metaphase cell.
(§2) The images in FIG. 1B) show fields of view of HeLa cells treated with (dimethyl sulfoxide) DMSO or 500 nM of C75. […] Higher concentrations of C75 caused spindle phenotypes in HFF1 cells, but they were quite different in comparison to HeLa cells (FIG. 1D).

HCT 116 cells = assay: as above; assay type: cell-based; conditions: Homo sapiens, 3 population doubling times
Description: as §1, §2

HFF-1 cells = assay: as above; assay type: cell-based; conditions: Homo sapiens, 3 population doubling times
Description: as §1, §2

HeLa cells [2] = assay: as above; assay type: cell-based; conditions: Homo sapiens, 3 population doubling times
Description: as §1, §2

A549 cells [3] = assay: Spindle phenotypes, fixed cells stained for γ-tubulin and ACA; assay type: cell-based, human; conditions: 300 nM for 4 hours
Description: (§3) For each condition, 20,000 cells were counted per replicate (N=3). Line graphs (right) were made to better illustrate the relative changes in the cell cycle phases for the different treatments. Bars show standard deviation. The asterisks indicate the first statistically significant change in the G0/G1 and G2/M populations determined by a two-way ANOVA with a post-hoc Tukey's multiple comparisons test using 95% confidence intervals. FIG. 2B) is a line graph showing the percentage of HCT116 (p53−/−) cells, A549 cells, HeLa cells and H1299 cells in mitosis after treatment with various concentrations of C75 for one population doubling time. All of the cell lines show an increase in the proportion of mitotic cells after treatment with 200 nM C75. The bars indicate standard deviation. […] While the mitotic spindles were not dramatically altered by C75 in HFF1 cells, they were monopolar (as shown) or fragmented in the other cell types. […] The mitotic spindles were more strongly fragmented after C75 treatment in these cells vs. the cells in FIG. 2C). FIG. 2E) are images showing fixed HFF1, HeLa, A549 and HCT 116 cells co-stained for γ-tubulin (spindle poles; white) and ACA (centromeres; light grey) 4 hours after treatment with 300 nM C87 (control) or 300 nM C75. Cartoon schematics show examples of the different spindle phenotypes, including bipolar with aligned chromosomes (top), bipolar with misaligned chromosomes (upper middle), multipolar/fragmented (lower middle), or monopolar (bottom), and the proportion of that phenotype is shown in the top right corner of each image. FIG. 2F) is a bar graph showing the proportion of the different spindle phenotypes for HFF1, HeLa, A549 and HCT 116 cells treated as in FIG. 2E) (n=1355; N=3). Bars show standard deviation. […] While mitotic spindles recovered bipolarity after removing nocodazole, they remained multipolar after removing C75. […] FIG. 2J) is a bar graph showing the proportion of cells with monopolar (black), bipolar (dark grey) or multipolar (light grey) spindles. Bars show standard deviation. FIG. 2K) is a series of time-lapse images of a live HeLa cell expressing GFP:tubulin after treatment with C75 as shown in 2G). […] Drugs were not washed out. […]
(§4) C75 was also tested for efficacy in different cancer cell lines. […] To further assess the role of C75 in disrupting spindles, HeLa cells were treated with 300 nM C75 for 4 hours and the spindle phenotypes were analyzed in more detail (FIG. 2E). […] To assess the affect of C75 on centrosomes, HeLa cells were treated with C75 or nocodazole (a drug that causes microtubule depolymerization as a control) for a short period of time (5 minutes), then the drugs were removed and the cells were analyzed for spindle phenotypes (schematic in FIG. 2G). […]

HeLa cells [4] = assay: as above; assay type: cell-based, human; conditions: 300 nM for 4 hours
Description: as §3, §4

[5] = system: HeLa cells in comparison to HFF1 cells; assay: Percentage of cells in mitosis, 8 hours; assay type: cell-based; conditions: nanomolar range
Description: as §1, §2

HeLa cells [6] = assay: Spindle morphology, fixed cells stained for tubulin and DAPI; assay type: cell-based, human
Description: as §1, §2

HeLa cells in metaphase = assay: Short treatment and washout, spindle recovery; assay type: cell-based, human; conditions: 5 minutes treatment, washout, imaged after 40 minutes
Description: For each condition, 20,000 cells were counted per replicate (N=3). Line graphs (right) were made to better illustrate the relative changes in the cell cycle phases for the different treatments. Bars show standard deviation. The asterisks indicate the first statistically significant change in the G0/G1 and G2/M populations determined by a two-way ANOVA with a post-hoc Tukey's multiple comparisons test using 95% confidence intervals. FIG. 2B) is a line graph showing the percentage of HCT116 (p53−/−) cells, A549 cells, HeLa cells and H1299 cells in mitosis after treatment with various concentrations of C75 for one population doubling time. All of the cell lines show an increase in the proportion of mitotic cells after treatment with 200 nM C75. The bars indicate standard deviation. […]
as §4

[7] = system: HeLa cells with lower levels of endogenous ch-TOG (ch-TOG RNAi); assay: Spindle phenotypes with ch-TOG RNAi; assay type: cell-based, human; conditions: 200 nM C75 or 20 nM colchicine
Description: FIG. 7B) is a bar graph showing the proportion of phenotypes of the HeLa cells observed in the different conditions listed in 7A) (bipolar spindles in light grey; bipolar spindles with misaligned chromosomes in dark grey; multipolar/fragmented spindles in hatched lines; monopolar spindles in black).

COc1ccc(S(=O)(=O)N2Cc3ccccc3-c3sc(Br)cc32)cc1 [Compound C75]
IC50 (A549 cells [1]): 377 nM
IC50 (HCT 116 cells): 431 nM
IC50 (HFF-1 cells): 789 nM
IC50 (HeLa cells [2]): 427 nM
cells with bipolar spindles with misaligned chromosomes (A549 cells [3]): 17%
cells with multipolar or fragmented spindles (A549 cells [3]): 78%
cells with bipolar spindles with misaligned chromosomes (HeLa cells [4]): 41%
cells with multipolar or fragmented spindles (HeLa cells [4]): 31%
mitotic arrest in HeLa vs HFF1 [5]: selectively causes mitotic arrest
mitotic spindle morphology (HeLa cells [6]; 300 nM): spindle organization was perturbed
mitotic spindle morphology (HeLa cells [6]; 750 nM): Centrosomes were fragmented or declustered and microtubules were completely absent
spindles reformed after drug removal (HeLa cells in metaphase): tri- or multipolar spindles formed
interaction with ch-TOG RNAi, fragmented spindle phenotype [7]: additive effect

Reference: patent US20200276181A1, “THIENOISOQUINOLINES AND THEIR DERIVATIVES FOR TARGETING TUBULIN, CH-TOG, AURORA A KINASE, TPX2, CDK5RAP2 AND/OR ASPM” (VALORBEC, SEC, priority 2017, published 2020)
